Measured values: patent US20230381157A1, “RIFABUTIN FOR THE TREATMENT OF ACINETOBACTER BAUMANNII” (University of Southern California, priority 2018, published 2023)
Values after ≈ are worked out from the molar mass of the structure shown. Values joined by “and” are separate entries in the source; they are usually repeats but may differ in a detail not shown here. Equal values may be shown once.

Experiments:
A. baumannii HUMC1 = test: MIC, broth microdilution in MHII, RPMI or modified media; assay type: cell-based, Acinetobacter baumannii; conditions: for Rifabutin MIC: clinical isolate HUMC1
[1] = test system: GFP expressing reporter strain of A. baumannii HUMC1; assay type: cell-based, Acinetobacter baumannii; conditions: addition of amino acids to RPMI vs RPMI alone; 6 hours
S. aureus LAC = test: microbe, parasite or virus in culture; assay type: cell-based; conditions: Staphylococcus aureus

## CO[C@H]1/C=C/O[C@@]2(C)Oc3c(C)c(O)c4c(c3C2=O)C2=NC3(CCN(CC(C)C)CC3)NC2=C(NC(=O)/C(C)=C\C=C\[C@H](C)[C@H](O)[C@@H](C)[C@@H](O)[C@@H](C)[C@H](OC(C)=O)[C@@H]1C)C4=O [rifabutin]
A. baumannii HUMC1; Acinetobacter baumannii, HUMC1, HUMC1, Low Salt Luria Broth
  MIC: 2 µg/mL
A. baumannii HUMC1; Acinetobacter baumannii, HUMC1, HUMC1, Luria Broth
  MIC: 1 µg/mL (≈ 1.18 µM)
A. baumannii HUMC1; Acinetobacter baumannii, HUMC1, HUMC1, M9
  MIC: < 0.05 µg/mL
A. baumannii HUMC1; Acinetobacter baumannii, HUMC1, HUMC1, MHII (CAMHB)
  MIC: 4 µg/mL (≈ 4.72 µM)
A. baumannii HUMC1; Acinetobacter baumannii, HUMC1, HUMC1, MHII + 200 mg/L glucose
  MIC: 2 µg/mL
A. baumannii HUMC1; Acinetobacter baumannii, HUMC1, HUMC1, MHII + 2,000 mg/L glucose
  MIC: 2 µg/mL
A. baumannii HUMC1; Acinetobacter baumannii, HUMC1, HUMC1, MHII + Non-Essential Amino Acid Solution (100×)
  MIC: 3.12 µg/mL
A. baumannii HUMC1; Acinetobacter baumannii, HUMC1, HUMC1, No Salt Luria Broth
  MIC: 1 µg/mL
A. baumannii HUMC1; Acinetobacter baumannii, HUMC1, HUMC1, Non tissue culture treated 96-well plates
  MIC: 1.56 µg/mL (≈ 1.84 µM)
A. baumannii HUMC1; Acinetobacter baumannii, HUMC1, HUMC1, RPMI + CCCP (2 μg/mL) + Essential Amino Acids
  MIC: 1.56 µg/mL
A. baumannii HUMC1; Acinetobacter baumannii, HUMC1, HUMC1, RPMI + Essential Amino Acid Solution (50×)
  MIC: 1.56 µg/mL
A. baumannii HUMC1; Acinetobacter baumannii, HUMC1, HUMC1, RPMI + Glutamic Acid 0.5 mM
  MIC: < 0.048 µg/mL
A. baumannii HUMC1; Acinetobacter baumannii, HUMC1, HUMC1, RPMI + Glycine 0.5 mM
  MIC: < 0.048 µg/mL
A. baumannii HUMC1; Acinetobacter baumannii, HUMC1, HUMC1, RPMI + L-Arginine 0.5 mM
  MIC: < 0.048 µg/mL
A. baumannii HUMC1; Acinetobacter baumannii, HUMC1, HUMC1, RPMI + L-Histidine 0.5 mM
  MIC: 1.56 µg/mL
A. baumannii HUMC1; Acinetobacter baumannii, HUMC1, HUMC1, RPMI + L-Tryptophan 0.125 mM
  MIC: 1.56 µg/mL
A. baumannii HUMC1; Acinetobacter baumannii, HUMC1, HUMC1, RPMI + Leucine 1 mM
  MIC: < 0.048 µg/mL
A. baumannii HUMC1; Acinetobacter baumannii, HUMC1, HUMC1, RPMI + Non-Essential Amino Acid Solution (100×)
  MIC: 0.781 µg/mL
A. baumannii HUMC1; Acinetobacter baumannii, HUMC1, HUMC1, RPMI + Organic Layer, Proteinase K Digested
  MIC: 4 µg/mL
A. baumannii HUMC1; Acinetobacter baumannii, HUMC1, HUMC1, RPMI + Organic layer, Sodium Periodate Treated
  MIC: 4 µg/mL
A. baumannii HUMC1; Acinetobacter baumannii, HUMC1, HUMC1, RPMI + acetonitrile treated <10 kDa MHII fraction, Aqueous Layer
  MIC: < 0.0312 µg/mL
A. baumannii HUMC1; Acinetobacter baumannii, HUMC1, HUMC1, RPMI + acetonitrile treated <10 kDa MHII fraction, Organic Layer
  MIC: 4 µg/mL
A. baumannii HUMC1; Acinetobacter baumannii, HUMC1, HUMC1, RPMI + efflux pump inhibitor CCCP (2 μg/mL)
  MIC: < 0.05 µg/mL
A. baumannii HUMC1; Acinetobacter baumannii, HUMC1, HUMC1, RPMI + efflux pump inhibitor thioridazine (16 μg/mL)
  MIC: 12.5 µg/mL
A. baumannii HUMC1; Acinetobacter baumannii, HUMC1, HUMC1, RPMI Supplemented with MHII (hybrid media, equal parts)
  MIC: 8 µg/mL (≈ 9.44 µM)
A. baumannii HUMC1; Acinetobacter baumannii, HUMC1, HUMC1, Tissue culture treated 96-well plates
  MIC: 1.56 µg/mL (≈ 1.84 µM)
A. baumannii HUMC1; HUMC1, 5 × RPMI, listed as RBT
  MIC: 0.06 µg/mL (≈ 0.0708 µM)
A. baumannii HUMC1; HUMC1, 10-30 kDa MHII Fraction spiked into RPMI, listed as RBT
  MIC: 8.00 µg/mL (≈ 9.44 µM)
A. baumannii HUMC1; HUMC1, 25° C. or 30° C. compared to 37° C., MHII or RPMI
  difference in MICs at lower temperature: did not observe any difference
A. baumannii HUMC1; HUMC1, 25° C., MHII, listed as RBT
  MIC: 4.00 µg/mL (≈ 4.72 µM)
A. baumannii HUMC1; HUMC1, 25° C., RPMI, listed as RBT
  MIC: 0.05 µg/mL (≈ 0.059 µM)
A. baumannii HUMC1; HUMC1, <10 kDa MHII Fraction spiked into RPMI, listed as RBT
  MIC: 8 µg/mL and 8.00 µg/mL
A. baumannii HUMC1; HUMC1, FeCl3 spiked into RPMI at 0.01, 0.10, and 0.30 μg/mL
  effect of added iron on MIC: did not have any effect
A. baumannii HUMC1; HUMC1, MHII (CAMHB in b45)
  MIC: 3.125 µg/mL (≈ 3.69 µM)
A. baumannii HUMC1; HUMC1, MHII (CAMHB in b45), listed as Rifabutin
  MIC: 3.125 µg/mL and 6.25 µg/mL
A. baumannii HUMC1; HUMC1, MHII (CAMHB), listed as RBT
  MIC: 4.00 µg/mL and 6.25 µg/mL
A. baumannii HUMC1; HUMC1, RPMI
  MIC: 0.0156 µg/mL (≈ 0.0184 µM)
A. baumannii HUMC1; HUMC1, RPMI + Glutamic Acid 0.5 mM, listed as RBT
  MIC: 0.05 µg/mL
A. baumannii HUMC1; HUMC1, RPMI + Glycine 0.5 mM, listed as RBT
  MIC: 0.05 µg/mL
A. baumannii HUMC1; HUMC1, RPMI + L-Arginine 0.5 mM, listed as RBT
  MIC: 0.05 µg/mL
A. baumannii HUMC1; HUMC1, RPMI + Leucine 1 mM, listed as RBT
  MIC: 0.05 µg/mL
A. baumannii HUMC1; HUMC1, RPMI + Non-Essential Amino Acid Solution (100×), listed as RBT
  MIC: 0.78 µg/mL
A. baumannii HUMC1; HUMC1, RPMI + Organic Layer, Proteinase K Digested, listed as RBT
  MIC: 4.00 µg/mL
A. baumannii HUMC1; HUMC1, RPMI + Organic layer, Sodium Periodate Treated, listed as RBT
  MIC: 4.00 µg/mL
A. baumannii HUMC1; HUMC1, RPMI + acetonitrile treated <10 kDa MHII fraction, Aqueous Layer, listed as RBT
  MIC: 0.03 µg/mL
A. baumannii HUMC1; HUMC1, RPMI + acetonitrile treated <10 kDa MHII fraction, Organic Layer, listed as RBT
  MIC: 4.00 µg/mL
A. baumannii HUMC1; HUMC1, RPMI + efflux pump inhibitor CCCP (2 μg/mL), listed as RBT
  MIC: 0.05 µg/mL
A. baumannii HUMC1; HUMC1, RPMI Supplemented with MHII (hybrid media, equal parts)
  MIC: 8 µg/mL (≈ 9.44 µM)
A. baumannii HUMC1; HUMC1, RPMI Supplemented with MHII (hybrid media, equal parts), listed as RBT
  MIC: 8.00 µg/mL (≈ 9.44 µM)
A. baumannii HUMC1; HUMC1, RPMI, listed as RBT
  fold lower MIC of RBT as compared to RIF: 133 fold and 200 fold
A. baumannii HUMC1; MHII
  Rifabutin MIC: 3.12 µg/mL
A. baumannii HUMC1; RPMI
  Rifabutin MIC: 0.0156 µg/mL
[1]
  inhibition of GFP fluorescence: less inhibition of GFP fluorescence
S. aureus LAC; MHII
  MIC: 0.012 µg/mL (≈ 0.0142 µM)
S. aureus LAC; RPMI
  MIC: 0.025 µg/mL (≈ 0.0295 µM)
